Source: patent US20250288515A1, “METHOD AND COMPOSITION FOR TREATING LUNG DISEASES” (MannKind Corporation, priority 2022, published 2025)

Assay: Pharmacokinetic study in rats, pulmonary insufflation versus intravenous injection
Assay type: in vivo
Settings: male Sprague Dawley rats, single dose 0.8 mg/kg, samples 10-240 minutes; FIG. 5
Experimental: Pharmacokinetic studies in rats with Compound I crystalline composite (XC) dry powders-Insufflation studies were performed in rats to deliver doses of dry powders of Compound I, a protein kinase antagonist. The study was performed to determine the pharmacokinetics profile of compound I dry powders made by the process as described above following pulmonary insufflation, or intravenous injection of a single dose of the composition administered in solution to male Sprague Dawley (Charles River Laboratories) adult rats, weighing between 200 g and 250 g at the time of the study. Dry powder comprising 22.1 wt % actual drug content were used and tested at 1 mg/ml in solution to deliver a dose of 0.8 mg/kg to 18 rats in each study group. Rats acclimatized and anesthetized prior to experimentation. Lung and blood samples were taken from the rats at 10, 20, 30, 120, and 240 minutes, post drug administration.

Cc1cccc(-n2ncc(C)c2-c2cc3cnccc3s2)n1 [compound I, 2 [4-methyl-1-(6-methylpyridin-2yl)-1H-pyrazol-5-yl]thieno-[3,2 c]pyridine]
Lung content of compound I after insufflation versus IV injection: higher content of compound I was detected in rat lung after insufflation versus IV injection
